From patent EP3102180B1, “A TOPICAL COMPOSITION” (Unilever N.V., priority 2014, dated 2015)

Key:
Assay type in all cases: cell-based
[1] = tested on: IL-17; experiment: IL-17 ELISA in PBMCs pretreated with active, induced with PMA/ionomycin; conditions: PBMCs pretreated with 0.001% active for 24 hours, induction 24 hours with 25 ng PMA/ 1 µg lonomycin; control 732; lower = more anti-inflammatory
Protocol: (§1) The procedure used to measure the anti-inflammatory potential of the various samples was as follows: Blood was diluted with equal volume of HBSS or PBS(1:1). The PBMCs were isolated into fresh tube. These PBMC's were then plated in 96 well plate (10^6 cell/well). They were then pretreated with the active (for 24 hours). Induction was then carried out with antigen/mitogen for 24 hours. The cell-supernatant was then taken and frozen. The cytokine levels in these supernatants were detected by ELISA.

[2] = tested on: TNF-alpha; experiment: TNF-alpha ELISA in PBMCs pretreated with active, induced with PMA/ionomycin; conditions: 0.001% active, 25 ng PMA/ 1 µg lonomycin, control 5384, lower = more anti-inflammatory
Protocol: as §1
The experiments were conducted using a similar procedure as earlier except that TNF-alpha ELISA was measured as a marker. Table -2

[3] = tested on: IL-17; experiment: Co-treatment with different actives, cytokine ELISA in PBMCs; conditions: co-treatment with 0.001% active, 25 ng PMA/ 1 µg lonomycin; control 2244
[4] = tested on: TNF-alpha; experiment: TNF-alpha ELISA in primary keratinocytes, LPS-induced inflammation; conditions: primary keratinocytes pretreated 24 hours with 0.001% active, 25 µg LPS; control 283
Protocol: (§2) The procedure used to measure the anti-inflammatory potential of the various samples was as follows: The primary keratinocytes were seeded in a 24 well plate (80000 cell/well). On attaining full confluency, the cells were pretreated with the active for 24 hours. Inflammation was induced either through using LPS or through use of live and heat treated P. acnes for 24 hours. The cell-supernatant was then taken and frozen. The cytokine levels in these supernatants were detected by ELISA.

[5] = tested on: IL-8; experiment: IL-8 ELISA in keratinocytes induced with LPS, heat killed or live P. acnes
Protocol: as §2
The experiments as shown in Table - 6 were studies using keratinocyte cell lines and the IL-8 concentration was measured. Table - 6
Examples K, 9 and 10: Experiments similar to J, 7 and 8 except that live p.acne was used

[6] = tested on: IL-8; experiment: IL-8 ELISA in PBMCs exposed to P.acne (with or without antimicrobial treatment of the bacteria)
Protocol: Actives/ Compositions as shown in Table-8 were measured for effect on inflammatory marker IL-8 using the following procedure: PBMCs were isolated as discussed before for Example-1. They were then plated in a 96-well plate. In some wells, cells were pre-treated with 0.001% Andrographolide for 24 hours and some wells were not treated with anything. P.acne culture was grown on CY agar medium in aneorobic chamber and then culture was set to the .005 O.D. Bacterial culture was treated with antimicrobial active combination of thymol (0.05%) and terpineol (0.05%) for 30 seconds. After the contact time is over, sample was neutralized in D/E neutralizer. The bacterial pellet was collected by centrifugation. The pellet was re-suspended in cell culture medium and bacterial culture was added to the cells (PBMC's) treated with andrographolide and also bacterial culture was added to the wells where there was no treatment with andrographolide. Live P.acne (not treated with the antimicrobial actives) was added to the wells where there was no treatment with andrographolide and also added to the wells treated with andrographolide. The treated cells were incubated in 37° C incubator for 24 hours. After 24 hours the supernatant was removed and ELISA was done for IL-8 marker.
The same procedure was followed as explained in the previous section for this experiment. The antimicrobials which were used for this experiment were thymol, terpineol, Triclosan (TCN) and Trichlorocarban (TCC). The used concentrations of these antimicrobials and the concentration of the IL-8 marker after the treatment are summarized in the following Table 9. Table - 9

[7] = tested on: TNF-alpha; experiment: TNF-alpha ELISA in PBMCs exposed to P.acne (with or without antimicrobial treatment of the bacteria); conditions: Table 10: PBMCs; Andrographolide pre-treatment (0.001% per procedure); P.acne treated with 0.05% Thymol, 0.05% Terpineol or 0.2% Silver Oxide; P.acne alone 635.6
[8] = tested on: bacterial cells; experiment: Antibacterial contact-time kill test (pour plate count after neutralisation); conditions: 0.2% TCC or 0.2% thymol + 0.5% terpineol
Protocol: Efficacy of two compositions as shown in Table - 4 were measured as follows: The O.D of the bacterial cells were adjusted such that it corresponds to 1X10^8 cells of bacteria. 1ml of the bacterial culture was taken and added to 9 ml of the test solution (containing the antimicrobial active). The mixture was kept for the desired amount of time after which it was neutralized by adding 1 ml of mix to the 9 ml of D/E neutralizer. It was then serially diluted till 10^5. The number of bacteria was then enumerated by using the pour plate method.

[9] = Table 9: PBMCs, Andrographolide pre-treatment (0.001% per procedure), P.acne treated with 0.05% Thymol, 0.05% Terpineol, 0.2% TCC, 0.2% TCN or 0.2% Silver Oxide, P.acne alone 641.5

Q: What does the source list for `C=C1CC[C@@H]2[C@](C)(CO)[C@H](O)CC[C@@]2(C)[C@@H]1C/C=C1/C(=O)OC[C@H]1O` [Andrographolide, andrographolide]?
A: IL-17 concentration [1]: 143 pg/mL; TNF-alpha concentration [2]: 58 pg/mL; IL-17 concentration [3]: 1187 pg/mL; TNF-alpha concentration [4]: 156 pg/mL; IL-8 concentration ([5]; 0.01% active, inducer 50 µg LPS, control 649): 229 pg/mL; IL-8 concentration ([5]; 0.01% active, inducer heat killed P. acnes, control 2238): 1088 pg/mL; IL-8 concentration ([5]; 0.01% active, inducer live P. acnes, control 558): 337 pg/mL; IL-8 concentration ([5]; 0.1% active, inducer 50 µg LPS, control 649): 78 pg/mL; IL-8 concentration ([5]; 0.1% active, inducer heat killed P. acnes, control 2238): 230 pg/mL; IL-8 concentration ([5]; 0.1% active, inducer live P. acnes, control 558): 205 pg/mL; IL-8 concentration ([6]; Table 8: PBMCs pre-treated with 0.001% Andrographolide for 24 hours and/or P.acne treated with thymol (0.05%) and terpineol (0.05%) for 30 seconds, P. acnes alone 957): 400 pg/mL; IL-8 concentration [6, 9]: 276.48 pg/mL; TNF-alpha concentration [7]: 231.15 pg/mL

Q: `CC1=C(/C=C/C(C)=C/C=C/C(C)=C/C(=O)O)C(C)(C)CCC1` [Retinoic acid] was tested. Which IL-17 concentration [3] did it give?
A: 2762 pg/mL

Q: `CC1=C(/C=C/C(C)=C/C=C/C(C)=C/CO)C(C)(C)CCC1` [Retinol] was tested. Which IL-17 concentration [3] did it give?
A: 2006 pg/mL

Q: For `[Ag+].[Ag+].[O-2]` [Silver Oxide, silver oxide, reference compound], which IL-8 concentration [6, 9] is on record?
A: 599.8 pg/mL

Q: And the TNF-alpha concentration [7]?
A: 494.3 pg/mL

Q: For `CCC(C)(C)C(=O)O[C@H]1C[C@@H](C)C=C2C=C[C@H](C)[C@H](CC[C@@H]3C[C@@H](O)CC(=O)O3)[C@H]21` [Simvastatin, reference compound], which IL-17 concentration [1] is on record?
A: 493 pg/mL

Q: `O=C(Nc1ccc(Cl)cc1)Nc1ccc(Cl)c(Cl)c1` [TCC, Trichlorocarbanilide] was tested. Which “Log CFU/ml” value ([8]; contact time 15 seconds, 1X10^8 cells of bacteria) did it give?
A: 7.1 Log CFU/ml

Q: And the “Log CFU/ml” value ([8]; contact time 30 seconds)?
A: 7.1 Log CFU/ml

Q: And the “Log CFU/ml” value ([8]; contact time 1 minute)?
A: 7.1 Log CFU/ml

Q: And the “Log CFU/ml” value ([8]; contact time 5 minutes)?
A: 7.1 Log CFU/ml

Q: And the IL-8 concentration [6, 9]?
A: 626.48 pg/mL

Q: How did the IL-8 concentration [6, 9] turn out when `Oc1cc(Cl)ccc1Oc1ccc(Cl)cc1Cl` [TCN, Triclosan, reference compound] was run?
A: 613.15 pg/mL

Q: `Cc1ccc(C(C)C)c(O)c1` [Thymol, thymol] was tested. Which IL-8 concentration [6, 9] did it give?
A: 546.38 pg/mL

Q: And the TNF-alpha concentration [7]?
A: 546.94 pg/mL
